Biological target: T1, HCV genotype 1b (BK) NS3 modified with a R155K mutation (Hepatitis C virus genotype 1b, UniProt P26663, R1181K)
T1 construct: HCV genotype 1b (BK) NS3 modified with a R155K mutation
Experiment: HCV NS3 protease time-resolved fluorescence (TRF) assay, NS3 protease 1b R155K Ki activity
Format: biochemical
Details: HCV genotype 1b (BK) NS3 with R155K mutation; TRF peptide substrate 100 nM; Ki derived from IC50
Summary of the method: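 Pre-incubation of NS3/NS4A protease (genotype 1b BK, R155K) with inhibitor for 30 min, then 1 h at room temperature with 100 nM TRF peptide substrate in pH 7.5 HEPES buffer with 10 mM DTT. Reaction quenched with pH 5.5 MES; time-resolved fluorescence read (ex 340/em 615 nm). Ki derived from four-parameter IC50 fit via IC50=Ki(1+[S]/KM).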

Compound | Ki [pM]
C=C[C@@H]1C[C@]1(NC(=O)[C@@H]1C[C@@H]2CN1C(=O)[C@H](C1CCCC1)NC(=O)O[C@@H]1CCC[C@H]1C/C=C/CCn1c(cc3cc(Cl)ccc3c1=O)O2)C(=O)NS(=O)(=O)C1CC1 [(3aR,7S,10S,12R,23E,25aS)-16-chloro-7-cyclopentyl-N-((1R,2S)-1-{[(cyclopropylsulfonyl)amino]carbonyl}-2-vinylcyclopropyl)-5,8,19-trioxo-1,2,3,3a,5,6,7,8,11,12,21,22,25,25a-tetradecahydro-10H,19H-9,12-methanocyclopenta[18,19][1,10,3,6,12]dioxatriazacyclononadecino[12,11-b]isoquinoline-10-carboxamide] | < 100
CC[C@@H]1C[C@]1(NC(=O)[C@@H]1C[C@@H]2CN1C(=O)[C@H](C1CCCC1)NC(=O)O[C@@H]1CCC[C@H]1CCCCCn1c(nc3ccccc3c1=O)O2)C(=O)NS(=O)(=O)C1CC1 [(3aR,7S,10S,12R,25aR)-7-cyclopentyl-N-((1R,2R)-1-{[(cyclopropylsulfonyl)amino]carbonyl}-2-ethylcyclopropyl)-5,8,19-trioxo-1,2,3,3a,5,6,7,8,11,12,21,22,23,24,25,25a-hexadecahydro-10H,19H-9,12-methanocyclopenta[18,19][1,10,3,6,12]dioxatriazacyclononadecino[11,12-b]quinazoline-10-carboxamide] | 100 to 500
CC[C@@H]1C[C@]1(NC(=O)[C@@H]1C[C@@H]2CN1C(=O)[C@H](C1CCCC1)NC(=O)O[C@@H]1CCC[C@H]1CCCCCn1c(cc3ccccc3c1=O)O2)C(=O)NS(=O)(=O)C1CC1 [(3aR,7S,10S,12R,25aR)-7-cyclopentyl-N-((1R,2R)-1-{[(cyclopropylsulfonyl)amino]carbonyl}-2-ethylcyclopropyl)-5,8,19-trioxo-1,2,3,3a,5,6,7,8,11,12,21,22,23,24,25,25a-hexadecahydro-10H,19H-9,12-methanocyclopenta[18,19][1,10,3,6,12]dioxatriazacyclononadecino[12,11-b]isoquinoline-10-carboxamide] | 100 to 500
CC[C@@H]1C[C@]1(NC(=O)[C@@H]1C[C@@H]2CN1C(=O)[C@H](C1CCCC1)NC(=O)O[C@@H]1CCC[C@H]1CCCCCn1c(nc3cc(-c4ccccc4)ccc3c1=O)O2)C(=O)NS(=O)(=O)C1CC1 [(3aR,7S,10S,12R,25aR)-7-cyclopentyl-N-((1R,2R)-1-{[(cyclopropylsulfonyl)amino]carbonyl}-2-ethylcyclopropyl)-5,8,19-trioxo-16-phenyl-1,2,3,3a,5,6,7,8,11,12,21,22,23,24,25,25a-hexadecahydro-10H,19H-9,12-methanocyclopenta[18,19][1,10,3,6,12]dioxatriazacyclononadecino[11,12-b]quinazoline-10-carboxamide] | 100 to 500
CC[C@@H]1C[C@]1(NC(=O)[C@@H]1C[C@@H]2CN1C(=O)[C@H](C1CCCC1)NC(=O)O[C@@H]1CCC[C@H]1CCCCCn1c(nc3cc(OC)ccc3c1=O)O2)C(=O)NS(=O)(=O)C1CC1 [(3aR,7S,10S,12R,25aR)-7-cyclopentyl-N-((1R,2R)-1-{[(cyclopropylsulfonyl)amino]carbonyl}-2-ethylcyclopropyl)-16-methoxy-5,8,19-trioxo-1,2,3,3a,5,6,7,8,11,12,21,22,23,24,25,25a-hexadecahydro-10H,19H-9,12-methanocyclopenta[18,19][1,10,3,6,12]dioxatriazacyclononadecino[11,12-b]quinazoline-10-carboxamide] | 100 to 500
CC[C@@H]1C[C@]1(NC(=O)[C@@H]1C[C@@H]2CN1C(=O)[C@H](C1CCCC1)NC(=O)O[C@@H]1CCC[C@H]1CCCCCn1c(cc3cc(OC)ccc3c1=O)O2)C(=O)NS(=O)(=O)C1CC1 [(3aR,7S,10S,12R,25aR)-7-cyclopentyl-N-((1R,2R)-1-{[(cyclopropylsulfonyl)amino]carbonyl}-2-ethylcyclopropyl)-16-methoxy-5,8,19-trioxo-1,2,3,3a,5,6,7,8,11,12,21,22,23,24,25,25a-hexadecahydro-10H,19H-9,12-methanocyclopenta[18,19][1,10,3,6,12]dioxatriazacyclononadecino[12,11-b]isoquinoline-10-carboxamide] | 100 to 500
CC[C@@H]1C[C@]1(NC(=O)[C@@H]1C[C@@H]2CN1C(=O)[C@H](C1CCCC1)NC(=O)O[C@@H]1CCC[C@H]1CCCCCn1c(nc3cccc(OC)c3c1=O)O2)C(=O)NS(=O)(=O)C1CC1 [(3aR,7S,10S,12R,25aR)-7-cyclopentyl-N-((1R,2R)-1-{[(cyclopropylsulfonyl)amino]carbonyl}-2-ethylcyclopropyl)-18-methoxy-5,8,19-trioxo-1,2,3,3a,5,6,7,8,11,12,21,22,23,24,25,25a-hexadecahydro-10H,19H-9,12-methanocyclopenta[18,19][1,10,3,6,12]dioxatriazacyclononadecino[11,12-b]quinazoline-10-carboxamide] | 500 to 1000
C=C[C@@H]1C[C@]1(NC(=O)[C@@H]1C[C@@H]2CN1C(=O)[C@H](C1CCCC1)NC(=O)O[C@@H]1CCC[C@H]1CCCCCn1c(nc3ccccc3c1=O)O2)C(=O)NS(=O)(=O)C1CC1 [(3aR,7S,10S,12R,25aR)-7-cyclopentyl-N-((1R,2S)-1-{[(cyclopropylsulfonyl)amino]carbonyl}-2-vinylcyclopropyl)-5,8,19-trioxo-1,2,3,3a,5,6,7,8,11,12,21,22,23,24,25,25a-hexadecahydro-10H,19H-9,12-methanocyclopenta[18,19][1,10,3,6,12]dioxatriazacyclononadecino[11,12-b]quinazoline-10-carboxamide] | < 100
C=C[C@@H]1C[C@]1(NC(=O)[C@@H]1C[C@@H]2CN1C(=O)[C@H](C1CCCC1)NC(=O)O[C@@H]1CCC[C@H]1CCCCCn1c(nc3cc(C(F)(F)F)ccc3c1=O)O2)C(=O)NS(=O)(=O)C1CC1 [(3aR,7S,10S,12R,25aR)-7-cyclopentyl-N-((1R,2S)-1-{[(cyclopropylsulfonyl)amino]carbonyl}-2-vinylcyclopropyl)-5,8,19-trioxo-16-(trifluoromethyl)-1,2,3,3a,5,6,7,8,11,12,21,22,23,24,25,25a-hexadecahydro-10H,19H-9,12-methanocyclopenta[18,19][1,10,3,6,12]dioxatriazacyclononadecino[11,12-b]quinazoline-10-carboxamide] | 100 to 500
C=C[C@@H]1C[C@]1(NC(=O)[C@@H]1C[C@@H]2CN1C(=O)[C@H](C1CCCC1)NC(=O)O[C@@H]1CCC[C@H]1CCCCCn1c(nc3c(OC)cccc3c1=O)O2)C(=O)NS(=O)(=O)C1CC1 [(3aR,7S,10S,12R,25aR)-7-cyclopentyl-N-((1R,2S)-1-{[(cyclopropylsulfonyl)amino]carbonyl}-2-vinylcyclopropyl)-15-methoxy-5,8,19-trioxo-1,2,3,3a,5,6,7,8,11,12,21,22,23,24,25,25a-hexadecahydro-10H,19H-9,12-methanocyclopenta[18,19][1,10,3,6,12]dioxatriazacyclononadecino[11,12-b]quinazoline-10-carboxamide] | < 100
C=C[C@@H]1C[C@]1(NC(=O)[C@@H]1C[C@@H]2CN1C(=O)[C@H](C1CCCC1)NC(=O)O[C@@H]1CCC[C@H]1CCCCCn1c(nc3cc(OC)ccc3c1=O)O2)C(=O)NS(=O)(=O)C1CC1 [(3aR,7S,10S,12R,25aR)-7-cyclopentyl-N-((1R,2S)-1-{[(cyclopropylsulfonyl)amino]carbonyl}-2-vinylcyclopropyl)-16-methoxy-5,8,19-trioxo-1,2,3,3a,5,6,7,8,11,12,21,22,23,24,25,25a-hexadecahydro-10H,19H-9,12-methanocyclopenta[18,19][1,10,3,6,12]dioxatriazacyclononadecino[11,12-b]quinazoline-10-carboxamide] | < 100
C=C[C@@H]1C[C@]1(NC(=O)[C@@H]1C[C@@H]2CN1C(=O)[C@H](C1CCCC1)NC(=O)O[C@@H]1CCC[C@H]1CCCCCn1c(cc3cc(OC)ccc3c1=O)O2)C(=O)NS(=O)(=O)C1CC1 [(3aR,7S,10S,12R,25aR)-7-cyclopentyl-N-((1R,2S)-1-{[(cyclopropylsulfonyl)amino]carbonyl}-2-vinylcyclopropyl)-16-methoxy-5,8,19-trioxo-1,2,3,3a,5,6,7,8,11,12,21,22,23,24,25,25a-hexadecahydro-10H,19H-9,12-methanocyclopenta[18,19][1,10,3,6,12]dioxatriazacyclononadecino[12,11-b]isoquinoline-10-carboxamide] | < 100
C=C[C@@H]1C[C@]1(NC(=O)[C@@H]1C[C@@H]2CN1C(=O)[C@H](C1CCCC1)NC(=O)O[C@@H]1CCC[C@H]1CCCCCn1c(nc3cc(C)ccc3c1=O)O2)C(=O)NS(=O)(=O)C1CC1 [(3aR,7S,10S,12R,25aR)-7-cyclopentyl-N-((1R,2S)-1-{[(cyclopropylsulfonyl)amino]carbonyl}-2-vinylcyclopropyl)-16-methyl-5,8,19-trioxo-1,2,3,3a,5,6,7,8,11,12,21,22,23,24,25,25a-hexadecahydro-10H,19H-9,12-methanocyclopenta[18,19][1,10,3,6,12]dioxatriazacyclononadecino[11,12-b]quinazoline-10-carboxamide] | < 100
C=C[C@@H]1C[C@]1(NC(=O)[C@@H]1C[C@@H]2CN1C(=O)[C@H](C1CCCC1)NC(=O)O[C@@H]1CCC[C@H]1CCCCCn1c(cc3ccc(F)cc3c1=O)O2)C(=O)NS(=O)(=O)C1CC1 [(3aR,7S,10S,12R,25aR)-7-cyclopentyl-N-((1R,2S)-1-{[(cyclopropylsulfonyl)amino]carbonyl}-2-vinylcyclopropyl)-17-fluoro-5,8,19-trioxo-1,2,3,3a,5,6,7,8,11,12,21,22,23,24,25,25a-hexadecahydro-10H,19H-9,12-methanocyclopenta[18,19][1,10,3,6,12]dioxatriazacyclononadecino[12,11-b]isoquinoline-10-carboxamide] | < 100

Reference: patent US8461107B2 (Merck Sharp & Dohme Corp., priority 2008, dated 2013)
